Test results from US20220000765A1, “METHODS AND COMPOSITION FOR TREATING MICROBIAL INFECTIONS” (UNIVERSITY OF LOUISVILLE RESEARCH FOUNDATION, INC., priority 2018, published 2022).
Read-outs that look alike come from different tables or passages of the source.

What was measured:
[1] = test system: Gardnerella vaginalis; assay: Probiotic - Gv liquid co-culture; format: cell-based; settings: Example 2; free probiotic (10e7 or 10e8), prebiotic and Gv; plated after 4 and 24 hours
Experimental: Bacteria loading, viability, and stability were tested by CFU count, BacLight live/dead assay, and fluorescence microscopy. La viability and stability were evaluated at −20° C., 4° C., and 25° C. by counting colony forming units (CFUs). To determine the ability of probiotic EFs to decrease Gv viability, a La EF-Gv co-culture was assessed.
Bacteria were co-cultured in media using the following experimental design (FIG. 16A). The probiotic (L. acidophilus (La) or L. crispatus (Lcr)), the prebiotic, and the Gv were combined for bacterial cell co-culture experiments. Each tube was serially diluted and plated after 4 (FIG. 16B) and 24 (FIG. 16C) hours growth.

[2] = test system: HIV-1; settings: for interaction with Q-GRFT against HIV-1: in free and encapsulated forms
[3] = Met78Gln variant versus wild-type GRFT; cited from earlier work
[4] = test system: HSV-2; assay: In vivo efficacy against a lethal dose of HSV-2 infection (GRFT fibers, Example 5); design: species or system BALB/c mice
Experimental: All in vivo experimental procedures were approved by the University of Louisville's Institutional Animal Care and Use Committee (IACUC 17135) prior to testing. All animal studies were conducted using 5-week-old female BALB/c mice (Jackson Laboratory, Bar Harbor, Me.) to evaluate the efficacy and safety of GRFT fibers. For efficacy studies, mice were administered either blank or GRFT fibers (5 mg) that were UV-sterilized for 15 s. Mice were subcutaneously injected with 3 mg Depo-Provera (Revive, Madison, N.J.) to induce the diestrous stage of their cycle, 5 days prior to fiber administration.
To determine the efficacy of GRFT fibers against HSV-2 infection, mice were administered a single dose of either GRFT PEO, PVA, or PVP fibers, or control groups (n=20). Twenty-four hours after fiber administration, mice were challenged with HSV-2 (20 μL, LD90 5,000 PFU). Untreated/infected mice were used as positive controls for infection, while untreated/uninfected mice and infected mice treated with free GRFT (20 μL, of 1,000 μg/mL, 20 μg GRFT) served as negative controls. […] Blank PEO fibers were administered as an additional control group in efficacy studies. Mice were monitored daily for 14 days after HSV-2 challenge using an established 4-point scale to monitor the progression of viral infection. Each day, mice were weighed and examined for signs of neurological and epithelial damage. […]

[5] = test system: HIV-1; settings: eluates of 1% w/w GRFT fibers
From the text: TZM-bl cells, obtained from the National Institutes of Health (NIH) AIDS Research and Reference Reagent Program (ARRRP), were used to assess in vitro HIV-1 infectivity. TZM-bl cells are engineered HeLa cells that express CD4, CCR5 and CXCR4 receptors and contain a Tat-driven luciferase gene, which is activated by HIV-1 infection and permits sensitive and accurate measurements of infection. TZM-bl cells are highly permissive to infection by most strains of HIV and molecularly cloned Env-pseudotyped viruses. TZM-bl cells were cultured in DMEM containing 10% FBS, 25 mM HEPES, and 50 μg/mL gentamicin. […]
The antiviral activity of GRFT fibers against HIV-1 was measured using an in vitro HIV-1 pseudovirus inhibition assay. As previously described, HIV-1 inhibition was determined as a function of reduction in luciferase reporter gene expression after a single round of infection in TZM-bl cells. The optimal virus dilution was established prior to the experiments to yield 100,000 relative luminescence units (RLUs). […]
After 48 hr, 100 μL, culture medium was carefully removed from each well. Luminescence was measured using the Bright-Glo luciferase assay system (Promega Corporation, Madison, Wis.) by adding 100 μL, Bright-Glo reagent solution to each well for 5 min. Plates were read via luminescence by the Synergy HT reader (BioTek). […]

[6] = test system: HSV-2; assay: In vivo HSV-2 efficacy, murine model of lethal HSV-2 infection (GRFT NPs and NP-EFs, Example 4); design: species or system BALB/c mice
Experimental: All in vivo experiments were approved by the University of Louisville's Institutional Animal Care and Use Committee (IACUC-17135) prior to testing. […] For these studies, mice were subcutaneously injected with 3 mg Depo-Provera (Revive, Madison, N.J.) 5 days prior to vehicle administration to induce the diestrous stage of their cycle. All materials administered to mice were UV-sterilized for 15 s prior to use. […] Untreated/uninfected mice and mice treated with 20 μg free GRFT (20 μL of 1,000 μg/mL) served as negative controls of infection, while untreated/infected mice served as a positive control for infection. Blank mPEG-PLGA nanoparticles were administered as an additional control group in efficacy studies.

[7] = test system: HSV-2; assay: In vitro HSV-2 plaque assay in Vero E6 cells (GRFT fibers, Example 5); format: cell-based, HSV-2 (4674); settings: eluates of 10% w/w GRFT fibers; 1 hr prior to infection
Experimental: To conduct HSV-2 plaque assays, Vero E6 cells and HSV-2 (4674) were kindly provided by Dr. Kenneth Palmer from the University of Louisville.
HSV-2 plaque assays were conducted to evaluate the in vitro efficacy of 10% w/w GRFT fibers against HSV-2 infection as previously described. Briefly, Vero E6 cells were seeded at 600,000 cells/well in a 6-well flat bottom plate (50% confluence) and grown for 24 hr to confluence. Prior to cell infection, 10% w/w GRFT fibers (30 mg) were dissolved in 20 mL complete plating media (1% FBS MEM). Once the cells were fully confluent, the growth media was removed and replaced with 2 mL of GRFT fiber eluate dilutions, followed by HSV-2 infection (3,000 PFU per well) 1 hr later. Free GRFT (2,000 μg/mL), corresponding to the concentration necessary to provide complete HSV-2 inhibition, was used as a positive control for inhibition, in addition to untreated/uninfected cells. Untreated/infected cells, were used as a negative control of inhibition.
Subsequent to HSV-2 infection, plates were incubated for 48 hr at 37° C., all media was removed, and cells were fixed with 1.5 mL methanol for 10 min. […] Finally, plates were washed with Milli-Q water, and plaques were counted after drying. […] Samples were analyzed in triplicate, and GraphPad Prism software was used to determine and compare the IC50 values of GRFT fibers to free GRFT.

[8] = test system: HIV-1; settings: NPs or eluates from 20% w/w NP-EF composites
Experimental: TZM-bl cells, obtained from the National Institutes of Health AIDS Research and Reference Reagent Program (ARRRP), are engineered HeLa cells that express CD4, CCR5 and CXCR4 receptors, and were used to assess in vitro HIV-1 infectivity. TZM-bl cells are highly permissive to infection by most HIV-1 and pseudovirus strains, and contain HIV-activated Tat-driven luciferase, allowing for precise quantification of infection. TZM-bl cells were cultured in Dulbecco's Modified Eagle medium (DMEM) containing 10% fetal bovine serum (FBS), 25 mM HEPES, and 50 μg/mL gentamicin (Thermo Fisher). […]
HIV inhibition was determined as a function of reduction in luciferase reporter gene expression after a single round of infection with pseudotyped HIV in TZM-bl cells. The optimal virus dilution (1:16) was established to yield ≥96,800 relative luminescence units (RLUs). […]
After 48 hr, 100 μL of culture medium was removed from each well. Luminescence was measured using the Bright-Glo luciferase assay (Promega Corporation, Madison, Wis.) by adding 100 μL Bright-Glo reagent solution to each well for 5 min and recording relative luminescence units (RLUs, Synergy HT reader, BioTek). […]

Compound: inulin
- effect on Gv growth in probiotic-prebiotic-Gv co-culture [1]: increase of Gv growth

Compound: Cc1nnc(C(=O)NC(C)(C)c2nc(C(=O)NCc3ccc(F)cc3)c(O)c(=O)n2C)o1 [RAL, Raltegravir]
- interaction with Q-GRFT against HIV-1 [2]: synergistic interactions

Compound: free Q-GRFT: oxidation-resistant variant of GRFT in which the Met at position 78 was replaced by a Gln
- susceptibility to oxidation [3]: no susceptibility to oxidation
- fold lowering of IC50 of free Q-GRFT ([2]; in combination with the free ARVs (TFV, RAL, DAP)): up to 6 fold

Compound: Cc1cc(C)c(Nc2ccnc(Nc3ccc(C#N)cc3)n2)c(C)c1 [DAP, Dapivirine]
- interaction with Q-GRFT against HIV-1 [2]: synergistic interactions

Compound: Griffithsin [free GRFT]
- progression of infection ([4]; mice that exhibited symptoms, relative to untreated/infected mice): decreased progression of infection
- infected mice whose initial symptoms disappeared near the end of the study ([4]; of 20 mice): 1 of 20
- 1 Hr HIV-1 IC50 ([5]; 1 hr prior to infection): 24.1 ± 15.6 ng/mL
- 24 Hr HIV-1 IC50 ([5]; 24 hr prior to infection): 22.8 ± 12.2 ng/mL
- survivability ([6]; intravaginal, single HSV-2 challenge LD90 5,000 PFU 24 hr later, 14 d post-infection, n=20): 85%
- onset of symptoms and progression of infection ([6]; treated mice that became symptomatic, relative to untreated/infected control group): delayed onset of symptoms and a more gradual progression of infection
- 1 Hr HSV-2 IC50 [7]: 25.5 ± 0.5 µg/mL
- IC50 against HIV-1 ([8]; administered to TZM-bl cells 1 hr prior to infection): 21.5 ± 5.3 ng/mL
- IC50 against HIV-1 ([8]; administered to TZM-bl cells 24 hr prior to infection): 20.8 ± 6.7 ng/mL

Compound: C[C@H](Cn1cnc2c(N)ncnc21)OCP(=O)(O)O [TFV, Tenofovir]
- interaction with Q-GRFT against HIV-1 [2]: synergistic interactions
